The subject of experiment [1] is Ramos clones transfected to overexpress Bcl-2. Briefly: Antiproliferation, 72 h, media with 10% FBS. It counts as cell-based, human. Particulars: Bcl-2 overexpressing Ramos, read-out: ED50 (μM) for antiproliferation. The procedure:
(§1) Like most 1,4-benzodiazepines, Bz-423 binds strongly to bovine serum albumin (BSA), which reduces the effective concentration of drug free in solution. For example, in tissue culture media containing 10% (v/v) fetal bovine serum (FBS), ca. 99% of the drug is bound to BSA. Therefore, cell culture cytotoxicity assays are conducted in media with 2% FBS to reduce binding to BSA and increase the free [Bz-423]. Under these conditions, the dose response-curve is quite sharp such that there is a limited concentration range at which Bz-423 is only partly effective. Since some benzodiazepines are known to have anti-proliferative properties, the effect of Bz-423 at concentrations <ED50 were carefully analyzed and observed that in addition to inducing apoptosis, Bz-423 prevented cell growth after 3 d in culture. In these low serum conditions, the cytotoxic and anti-proliferative effects overlapped making it difficult to study each effect independently. […] While higher amounts of drug may also block proliferation, it caused apoptosis well before the effects on proliferation could be observed.
(§2) To confirm the decrease in cell number relative to control cells after 3 d of treatment is due to decreased proliferation and not cell death balanced by proliferation, in addition to cell counting, cell divisions were studied. PKH-67 is a fluorescent probe that binds irreversibly to cell membranes and upon cell division is partitioned equally between the daughter cells, making it possible to quantify cell division by flow cytometry. Ramos cells stained with PKH67 and treated with Bz-423 had fewer cell divisions at sub-cytotoxic concentrations which confirmed that the decrease in cell number was due to anti-proliferative affects and not cell death. To determine if Bz-423 induced anti-proliferation was specific to Ramos cells, cell counting and cell cycle experiments were done in other B cell lines and cell lines derived from solid tumors.

Experiment [2] relates to Ramos cells. The experiment in a line: Antiproliferation, 72 h, media with 10% FBS. It is filed as cell-based, human. Particulars: read-out: ED50 (μM) for antiproliferation. Here is the method:
as §1, §2

Experiment [3] has as its system Ramos clones transfected to overexpress Bcl-xL. Briefly: Antiproliferation, 72 h, media with 10% FBS. It counts as cell-based, human. Particulars: Bcl-XL overexpressing Ramos, read-out: ED50 (μM) for antiproliferation. Here is the method:
as §1, §2

The subject of experiment [4] is B cells. The experiment in a line: Collapse of mitochondrial ΔΨm detected with DiOC6(3). It counts as cell-based. Particulars: by 5 hours. Here is the method:
To detect O2^−, cells are incubated with DHE (10 μM) for 30 min at 37° C. and are analyzed by flow cytometry to measure ethidium fluorescence. Flow analysis of mitochondrial transmembrane potential (ψm) is conducted by labeling cells with DiOC6(3) (20 nM) for 15 min at 37 degrees C. A positive control for disruption of ψm is established using carbonyl cyanide m-chlorophenylhydrazone (CCCP, 50 μM). Caspase activation assays are performed with FAM-VAD-fluoromethylketone. Processing of the substrate is evaluated by flow cytometry.
To characterize the death mechanism engaged by Bz-423, intracellular ROS, ΔΨm, cytochrome c release, caspase activation, and DNA fragmentation were measured over time (the results presented are for B cells but do characterize the response in many different cell types). The first event detected after exposure to Bz-423 is an increase in the fraction of cells that stain with dihyroethedium (DHE), a redox-sensitive agent that reacts specifically with O2^−.
Collapse of ΔΨm was detected using DiOC6(3), a mitochondria-selective potentiometric probe.

Experiment [5] has as its system isolated rat liver mitochondria. The experiment in a line: ROS production in isolated mitochondria (DCFH oxidation to DCF). It is filed as biochemical. Here is the method: Male Long Evans rats are starved overnight and sacrificed by decapitation. Liver samples are homogenized in ice cold buffer A (250 mM sucrose, 10 mM Tris, 0.1 mM EGTA, pH 7.4), and nuclei and cellular debris are pelleted (10 min, 830 g, 4° C.). Mitochondria are collected by centrifugation (10 min, 15,000 g, 4° C.), and the supernatant is collected as the S15 fraction. The mitochondrial pellet is washed three times with buffer B (250 mM sucrose, 10 mM Tris, pH 7.4), and re-suspended in buffer B at 20–30 mg/mL. Mitochondria are diluted (0.5 mg/mL) in buffer C (200 mM sucrose, 10 mM Tris, pH 7.4, 1 mM KH2PO4, 10 μM EGTA, 2.5 μM rotenone, 5 mM succinate) containing 2′,7′-dichlorodihydrofluorescin diacetate (DCFH-DA, 1 μM). For state 3 measurements, ADP (2 mM) is included in the buffer, and prior to the addition of Bz-423, mitochondria are allowed to charge for 2 min. To induce state 4, oligomycin (10 μM) is added to buffer C. […] To detect effects on O2^− and delta ψm, mitochondria are incubated for 15 min at 37° C. in buffer C with vehicle, Bz-423, or CCCP containing DHE (5 μM) or DIOC6(3) (20 nM), and aliquots are removed for analysis by fluorescence microscopy.
O2^− production by Bz-423 may result from binding to a protein within mitochondria or a target in another compartment that signals mitochondria to generate ROS. To distinguish between these alternatives, isolated rat liver mitochondria were assayed for ROS production by monitoring the oxidation of 2′,7′-dichlorodihydrofluorescin diacetate to of 2′,7′-dichlorofluorescin in the presence and absence of Bz-423. In this assay, the rate of DCF production increased after a lag period during which endogenous reducing equivalents were consumed and the acetate moieties on the probe were hydrolyzed to yield 2′,7′-dichlorodihydrofluorescin, the redox-active species.

Experiment [6] has as its target T1, human OSCP (Homo sapiens, UniProt P48047).
T1 construct: made in house; host or cells: E. coli
Briefly: Quenching of intrinsic OSCP fluorescence on titration (binding isotherm). Particulars: human OSCP overexpressed in E. coli, fluorescence quenching. From the text: Oligomycin is a macrolide natural product that binds to the mitochondrial F1F0-ATPase, induces a state 3 to 4 transition, and as a result, generates ROS (e.g., O2^−). In preferred embodiments, the present invention binds the OSCP component of the mitochondrial F1F0-ATPase. In certain embodiments, screening assays of the present invention permit detection of binding partners of the OSCP. OSCP is an intrinsically fluorescent protein. In certain embodiments, titrating a solution of test compounds of the present invention into an E. Coli sample overexpressed with OSCP results in quenching of the intrinsic OSCP fluorescence. In other embodiments, fluorescent or radioactive test compounds can be used in direct binding assays. In other embodiments, competition binding experiments can be conducted. In this type of assay, test compounds are assessed for their ability to compete with Bz-423 for binding to the OSCP. In some embodiments, the compounds of the present invention cause a reduced increase in cellular ROS levels and reduced apoptosis in cells through regulation of the OSCP gene (e.g., altering expression of the OSCP gene). In further embodiments, the present invention functions by altering the molecular motions of the ATPase motor.
To determine if Bz-423 indeed binds to the OSCP and the affinity of the interaction, human OSCP was overexpressed in E. coli. […]

Experiment [7] deals with central benzodiazepine receptor. The experiment in a line: Binding to the central benzodiazepine receptor.

SMILES strings stand for the structures.

T1 sequence (P48047 24-213): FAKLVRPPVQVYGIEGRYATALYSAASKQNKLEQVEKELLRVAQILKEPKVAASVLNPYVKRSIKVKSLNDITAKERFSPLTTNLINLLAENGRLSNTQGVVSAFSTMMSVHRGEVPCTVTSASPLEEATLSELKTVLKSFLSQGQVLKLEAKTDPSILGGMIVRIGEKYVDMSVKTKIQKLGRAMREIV

As to `CN1C(=O)C(Cc2ccc3ccccc3c2)N=C(c2ccc(O)cc2)c2cc(Cl)ccc21` (centres unmarked) [Bz-423], the EC50 is 11.9 µM in experiment [1], 10.7 µM in experiment [2] and 13.7 µM in experiment [3]. For the same molecule, the “Cells with collapse of ΔΨm” value in experiment [4] was greater than 90%. In experiment [5] (state 3 respiration, aerobic, after induction phase, slopes compared to control), the “Increase in rate of ROS production versus control” value is recorded as “nearly two-fold”. Also, the “ROS production in state 4 mitochondria” value in experiment [5] (state 4 respiration) is “does not stimulate ROS”. In experiment [6], this molecule yielded a dissociation constant Kd of 0.2 ± 0.04 µM. For the same molecule, the “Binding to the central benzodiazepine receptor” value in experiment [7] is “prevents binding”.

By Kd is commonly meant the constant that tells how readily two partners part at equilibrium. A lower Kd goes with a tighter complex.

For the origin of these results see patent US7144880B2, “Compositions relating to novel compounds and targets thereof” (Regents of the University of Michigan, priority 2003, dated 2006).
